Laboratory results: patent US20190315823A1, “SMALL CATIONIC ANTI-BIOFILM AND IDR PEPTIDES” (priority 2013, published 2019)
Where two headings read alike, the source gives them in different places. Marks after values point to notes of the source that are not given here. Peptide text beside a SMILES is read from it.

Columns and labels:
Format in all cases: cell-based
P. aeruginosa biofilm = system: P. aeruginosa biofilm
Procedure: (§1) Methods of assessment of anti-biofilm activity—Biofilm formation was initially analyzed using a static abiotic solid surface assay as described elsewhere (de la Fuente-Nunez et al., 2012). […] Planktonic cells were removed, biofilm cells adhering to the side of the tubes were stained with crystal violet, and absorbance at 595 nm was measured using a microtiter plate reader (Bio-Tek Instruments Inc., United States). Some peptides were screened against two Gram negative organisms, P. aeruginosa and K. pneumoniae using a Bioflux apparatus (AutoMate Scientific, Berkeley, Calif.; http://www.autom8.com/bioflux_biofilm.html), which allows for the high-throughput, real-time analysis of biofilms.

S. aureus biofilm = system: S. aureus biofilm
Procedure: as §1

[1] = system: human peripheral blood mononuclear cells (MCP-1); experiment: SPOT-synthesized derivative screen: production of chemokine MCP-1; conditions: No LPS
How it was run: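 PBMC from heparinized healthy-donor venous blood, Ficoll-separated, cultured at 0.75 to 1×10^6 cells/ml, 37 °C, 5% CO2, under the treatment regimens. MCP-1 in cell-free supernatants measured by capture ELISA.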

[2] = system: LPS-stimulated human peripheral blood mononuclear cells (IL1-β); conditions: cells stimulated with 10 ng/ml LPS
[3] = concentration that reduced biofilm growth by 50%
[4] = Table 12A, background subtracted (21.3 pg/ml)
[5] = Table 12A, 1002-2013 compared to LPS control of 889 pg/ml
[6] = Table 12A, LPS alone 984 pg/ml, starred values (1002-2013) determined separately, LPS alone 889 pg/ml

CC[C@H](C)[C@H](NC(=O)[C@H](CCCNC(=N)N)NC(=O)[C@@H](NC(=O)[C@H](CCCNC(=N)N)NC(=O)[C@@H](NC(=O)[C@@H](NC(=O)[C@H](CC(C)C)NC(=O)[C@H](CCCNC(=N)N)NC(=O)[C@@H](N)C(C)C)[C@@H](C)CC)C(C)C)C(C)C)C(=O)N[C@@H](Cc1c[nH]c2ccccc12)C(=O)N[C@@H](CCCNC(=N)N)C(=O)N[C@@H](CCCNC(=N)N)C(N)=O [Peptide 2005] (H-VRLIVRVRIWRR-NH2; N-terminus assumed)
MBIC50 P. aeruginosa (P. aeruginosa biofilm; [3]): 2.5 µg/mL
MBIC50 S. aureus (S. aureus biofilm; [3]): 10 µg/mL
Fold increase in MCP1 cf. untreated cells ([1]; Table 12A): 837
MCP1 [1, 4]: 17826 pg/mL
Fold change in IL1β relative to no peptide LPS stimulated cells [2, 5]: 0.10
IL1β Production [2, 6]: 101 pg/mL

CC[C@H](C)[C@H](NC(=O)[C@@H](NC(=O)[C@H](CCCCN)NC(=O)[C@@H](NC(=O)[C@H](CCCNC(=N)N)NC(=O)[C@H](CCCNC(=N)N)NC(=O)[C@@H](NC(=O)[C@H](CCCNC(=N)N)NC(=O)[C@H](CCC(N)=O)NC(=O)[C@@H](N)Cc1c[nH]c2ccccc12)C(C)C)C(C)C)C(C)C)C(=O)N[C@@H](CCCNC(=N)N)C(=O)N[C@@H](CCCCN)C(N)=O [Peptide 2013] (H-WQRVRRVKVIRK-NH2; N-terminus assumed)
MBIC50 P. aeruginosa (P. aeruginosa biofilm; biofilm): 20 µg/mL
MBIC50 S. aureus (S. aureus biofilm; biofilm): >80 µg/mL
Fold increase in MCP1 cf. untreated cells ([1]; Table 12A): 31
MCP1 [1, 4]: 645 pg/mL
Fold change in IL1β relative to no peptide LPS stimulated cells [2, 5]: 0.93
IL1β Production (pg/ml) [2, 6]: 830* pg/ml

CC[C@H](C)[C@H](NC(=O)[C@H](CCCNC(=N)N)NC(=O)[C@@H](NC(=O)[C@H](CCCCN)NC(=O)[C@@H](NC(=O)[C@@H](NC(=O)[C@H](Cc1c[nH]c2ccccc12)NC(=O)[C@H](CCCNC(=N)N)NC(=O)[C@@H](N)C(C)C)[C@@H](C)CC)C(C)C)C(C)C)C(=O)N[C@@H](CCCNC(=N)N)C(=O)N[C@@H](CCCNC(=N)N)C(=O)N[C@@H](CCCNC(=N)N)C(N)=O [Peptide 2006] (H-VRWIVKVRIRRR-NH2; N-terminus assumed)
MBIC50 P. aeruginosa (P. aeruginosa biofilm; [3]): 20 µg/mL
MBIC50 S. aureus (S. aureus biofilm; [3]): 10 µg/mL
Fold increase in MCP1 cf. untreated cells ([1]; Table 12A): 316
MCP1 [1, 4]: 6714 pg/mL
Fold change in IL1β relative to no peptide LPS stimulated cells [2, 5]: 0.33
IL1β Production [2, 6]: 322 pg/mL

CC[C@H](C)[C@H](NC(=O)[C@H](CCCNC(=N)N)NC(=O)[C@@H](NC(=O)[C@H](CCCCN)NC(=O)[C@@H](NC(=O)[C@@H](NC(=O)[C@H](CC(C)C)NC(=O)[C@H](CCCNC(=N)N)NC(=O)[C@@H](N)CCCNC(=N)N)[C@@H](C)CC)C(C)C)C(C)C)C(=O)N[C@@H](Cc1c[nH]c2ccccc12)C(=O)N[C@@H](CCCNC(=N)N)C(=O)N[C@@H](CCCNC(=N)N)C(N)=O [Peptide 2007] (H-RRLIVKVRIWRR-NH2; N-terminus assumed)
MBIC50 P. aeruginosa (P. aeruginosa biofilm; biofilm): 5 µg/mL
MBIC50 S. aureus (S. aureus biofilm; biofilm): 10 µg/mL
Fold increase in MCP1 cf. untreated cells ([1]; Table 12A): 386
MCP1 [1, 4]: 7954 pg/mL
Fold change in IL1β relative to no peptide LPS stimulated cells [2, 5]: 0.88
IL1β Production [2, 6]: 867 pg/mL

CC[C@H](C)[C@H](NC(=O)[C@H](CCCNC(=N)N)NC(=O)[C@@H](NC(=O)[C@H](CCCCN)NC(=O)[C@@H](NC(=O)[C@@H](NC(=O)[C@@H](NC(=O)[C@H](CCCNC(=N)N)NC(=O)[C@@H](N)C(C)C)C(C)C)[C@@H](C)CC)C(C)C)C(C)C)C(=O)N[C@@H](CCCNC(=N)N)C(=O)N[C@@H](CCCNC(=N)N)C(=O)N[C@@H](CCCNC(=N)N)C(N)=O [Peptide 2004] (H-VRVIVKVRIRRR-NH2; N-terminus assumed)
MBIC50 P. aeruginosa (P. aeruginosa biofilm; [3]): 2.5 µg/mL
MBIC50 S. aureus (S. aureus biofilm; [3]): 20 µg/mL
Fold increase in MCP1 cf. untreated cells ([1]; Table 12A): 340
MCP1 [1, 4]: 7226 pg/mL
Fold change in IL1β relative to no peptide LPS stimulated cells [2, 5]: 0.56
IL1β Production [2, 6]: 549 pg/mL

CC[C@H](C)[C@H](NC(=O)[C@H](CCCNC(=N)N)NC(=O)[C@@H](NC(=O)[C@H](C)NC(=O)[C@@H](NC(=O)[C@@H](NC(=O)[C@H](CC(C)C)NC(=O)[C@H](CCCNC(=N)N)NC(=O)[C@@H](N)C(C)C)[C@@H](C)CC)C(C)C)C(C)C)C(=O)N[C@@H](CCCNC(=N)N)C(=O)N[C@@H](CCCNC(=N)N)C(=O)N[C@@H](CCCNC(=N)N)C(N)=O [Peptide 2002] (H-VRLIVAVRIRRR-NH2; N-terminus assumed)
MBIC50 P. aeruginosa (P. aeruginosa biofilm; [3]): 2.5 µg/mL
MBIC50 S. aureus (S. aureus biofilm; [3]): 20 µg/mL
Fold increase in MCP1 cf. untreated cells ([1]; Table 12A): 152
MCP1 [1, 4]: 3215 pg/mL
Fold change in IL1β relative to no peptide LPS stimulated cells [2, 5]: 0.30
IL1β Production [2, 6]: 293 pg/mL

CC[C@H](C)[C@H](NC(=O)[C@H](CCCNC(=N)N)NC(=O)[C@H](CC(C)C)NC(=O)[C@H](CCC(N)=O)NC(=O)[C@@H](N)C(C)C)C(=O)N[C@@H](CCCNC(=N)N)C(=O)N[C@H](C(=O)N[C@@H](C)C(=O)N[C@H](C(=O)N[C@H](C(=O)N[C@@H](CCCNC(=N)N)C(=O)N[C@@H](C)C(N)=O)[C@@H](C)CC)C(C)C)C(C)C [HH2] (H-VQLRIRVAVIRA-NH2; N-terminus assumed)
MBIC50 P. aeruginosa (P. aeruginosa biofilm; biofilm): >80 µg/mL
Fold increase in MCP1 cf. untreated cells ([1]; Table 12, human PBMC, peptide at ~18-24 μM): 3.6
MCP1 ([1]; Table 12, human PBMC, peptide at ~18-24 μM, background subtracted 139 (HH2 derivatives), 170 (1018 derivatives), 242 (1002 and hybrid peptides) pg/ml): 450 pg/mL
Fold increase in MCP1 cf. untreated cells ([1]; Table 12A): 43
MCP1 [1, 4]: 896 pg/mL
Fold change in IL1β relative to no peptide LPS stimulated cells ([2]; Table 12): 1.00
IL1β Production ([2]; Table 12, LPS alone 1313 (HH2 derivatives), 1927 (1018 derivatives), 2455 (1002 and hybrid peptides) pg/ml): 1307 pg/mL
Fold change in IL1β relative to no peptide LPS stimulated cells [2, 5]: 0.53
IL1β Production (pg/ml) [2, 6]: 469* pg/ml

CC[C@H](C)[C@H](NC(=O)[C@H](CCCNC(=N)N)NC(=O)[C@H](CC(C)C)NC(=O)[C@H](CCC(N)=O)NC(=O)[C@@H](N)Cc1c[nH]c2ccccc12)C(=O)N[C@@H](CCCNC(=N)N)C(=O)N[C@H](C(=O)N[C@@H](CCCCN)C(=O)N[C@H](C(=O)N[C@H](C(=O)N[C@@H](CCCNC(=N)N)C(=O)N[C@@H](CCCCN)C(N)=O)[C@@H](C)CC)C(C)C)C(C)C [Peptide 2012] (H-WQLRIRVKVIRK-NH2; N-terminus assumed)
MBIC50 P. aeruginosa (P. aeruginosa biofilm; biofilm): 20 µg/mL
Fold increase in MCP1 cf. untreated cells ([1]; Table 12A): 227
MCP1 [1, 4]: 4824 pg/mL
Fold change in IL1β relative to no peptide LPS stimulated cells [2, 5]: 0.43
IL1β Production (pg/ml) [2, 6]: 381* pg/ml

CC[C@H](C)[C@H](NC(=O)[C@H](CCCNC(=N)N)NC(=O)[C@H](Cc1c[nH]c2ccccc12)NC(=O)[C@H](CCCNC(=N)N)NC(=O)[C@@H](NC(=O)[C@H](CC(C)C)NC(=O)[C@H](Cc1c[nH]c2ccccc12)NC(=O)[C@H](CCCNC(=N)N)NC(=O)[C@H](CCC(N)=O)NC(=O)[C@@H](N)CCCCN)[C@@H](C)CC)C(=O)N[C@@H](CCCNC(=N)N)C(=O)N[C@@H](CCCCN)C(N)=O [Peptide 2010] (H-KQRWLIRWRIRK-NH2; N-terminus assumed)
MBIC50 P. aeruginosa (P. aeruginosa biofilm; biofilm): 2.5 µg/mL
Fold increase in MCP1 cf. untreated cells ([1]; Table 12A): 266
MCP1 [1, 4]: 5649 pg/mL
Fold change in IL1β relative to no peptide LPS stimulated cells [2, 5]: 0.42
IL1β Production (pg/ml) [2, 6]: 377* pg/ml

CC[C@H](C)[C@H](NC(=O)[C@H](CCCNC(=N)N)NC(=O)[C@@H](NC(=O)[C@H](CCCCN)NC(=O)[C@@H](NC(=O)[C@@H](NC(=O)[C@H](CC(C)C)NC(=O)[C@H](CCCNC(=N)N)NC(=O)[C@@H](N)C(C)C)[C@@H](C)CC)C(C)C)C(C)C)C(=O)N[C@@H](Cc1c[nH]c2ccccc12)C(=O)N[C@@H](CCCNC(=N)N)C(=O)N[C@@H](CCCNC(=N)N)C(N)=O [Peptide 2001] (H-VRLIVKVRIWRR-NH2; N-terminus assumed)
MBIC50 P. aeruginosa (P. aeruginosa biofilm; [3]): 2.5 µg/mL
MBIC50 S. aureus (S. aureus biofilm; [3]): 10 µg/mL
Fold increase in MCP1 cf. untreated cells ([1]; Table 12A): 765
MCP1 [1, 4]: 16300 pg/mL
Fold change in IL1β relative to no peptide LPS stimulated cells [2, 5]: 0.08
IL1β Production [2, 6]: 76 pg/mL

CC[C@H](C)[C@H](NC(=O)[C@H](CCCNC(=N)N)NC(=O)[C@@H](NC(=O)[C@H](CCCCN)NC(=O)[C@@H](NC(=O)[C@@H](NC(=O)[C@H](Cc1c[nH]c2ccccc12)NC(=O)[C@H](CCCNC(=N)N)NC(=O)[C@@H](N)CCCNC(=N)N)[C@@H](C)CC)C(C)C)C(C)C)C(=O)N[C@@H](CCCNC(=N)N)C(=O)N[C@@H](CCCNC(=N)N)C(=O)N[C@@H](CCCNC(=N)N)C(N)=O [Peptide 2008] (H-RRWIVKVRIRRR-NH2; N-terminus assumed)
MBIC50 P. aeruginosa (P. aeruginosa biofilm; biofilm): 10 µg/mL
MBIC50 S. aureus (S. aureus biofilm; biofilm): 10 µg/mL
Fold increase in MCP1 cf. untreated cells ([1]; Table 12A): 2146
MCP1 [1, 4]: 45524 pg/mL
Fold change in IL1β relative to no peptide LPS stimulated cells [2, 5]: 0.25
IL1β Production [2, 6]: 250 pg/mL

CC[C@H](C)[C@H](NC(=O)[C@H](CCCNC(=N)N)NC(=O)[C@H](Cc1c[nH]c2ccccc12)NC(=O)[C@H](CCCNC(=N)N)NC(=O)[C@@H](NC(=O)[C@H](CC(C)C)NC(=O)[C@H](CC(C)C)NC(=O)[C@H](CCCNC(=N)N)NC(=O)[C@H](Cc1c[nH]c2ccccc12)NC(=O)[C@@H](N)CCCCN)[C@@H](C)CC)C(=O)N[C@@H](CCC(N)=O)C(=O)N[C@@H](CCCCN)C(N)=O [Peptide 2009] (H-KWRLLIRWRIQK-NH2; N-terminus assumed)
MBIC50 P. aeruginosa (P. aeruginosa biofilm; biofilm): 2.5 µg/mL
Fold increase in MCP1 cf. untreated cells ([1]; Table 12A): 586
MCP1 [1, 4]: 12475 pg/mL
Fold change in IL1β relative to no peptide LPS stimulated cells [2, 5]: 0.08
IL1β Production (pg/ml) [2, 6]: 74* pg/ml
